The subject of this experiment is CEM cells HIV-1 protection, formazan growth assay. Description: NCI AIDS Antiviral Assay. The note with it: for IC50: measured here: growth of uninfected CEM cells. Put shortly: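 Steps: treat uninfected and HIV-1-infected human CEM cells at five drug levels; quantify growth by soluble formazan; retest any compound reaching 50% protection; classify actives from the retest.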

Several values for one entry are separate records, joined by “and”; a condition that tells them apart may be missing. Equal values may be shown once. Activity calls are given as the source filed them.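 How the source made its calls: active means compounds giving half or more protection of infected cells from virus-caused growth loss, again on retest; inactive means the rest.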 Where a SMILES comes first, the peptide text is derived from it.

For the molecule `CCC1(CC)COP(=S)([S][Sb]([O]C(C)=O)[S]P2(=S)OCC(CC)(CC)CO2)OC1`, the EC50 was over 57.5 µM and the IC50 came to 9.33 µM.
As for `CC(C)(O)[C@H]1CC[C@@]23CCCC(=O)C2(C1)C3` (stereo not given in full), the result was inactive.
With `O=C(Cn1c(-c2ccccc2)cc2ccccc21)N1CCOCC1`, the EC50 is over 200 µM and the IC50 is over 200 µM.
In the case of `Cc1nn2c(=O)[nH]cnc2c1Cl`, the EC50 is over 229 µM and the IC50 is over 229 µM.
For `C=C1C=CN(C(C)=O)C(OC(C)=O)C1SC(C)(C)C` (stereo not given), the EC50 was over 200 µM and the 50% inhibitory concentration (IC50) came to 57.5 µM.
On to `FC(F)(F)c1ccccc1C=NC12CC3CC(CC(C3)C1)C2`, for which the EC50 is over 30.9 µM and the IC50 is over 30.9 µM.
With `N#CC(C#N)=Cc1ccc(SCc2ccc(Cl)cc2)cc1`, the EC50 was over 200 µM and the IC50 is 135 µM.
Taken in the same sequence, the figures for `CN(C)C(=S)SN(C)C(=O)Nc1ccccc1` were over 200 µM and 13.2 µM.
In the same order, the values of `O=S(=O)(CCC[C@H]1[C@@H](CCOCc2ccccc2)C2CCCN1O2)c1ccccc1` (stereo not given in full) are over 200 µM and 95.5 µM.
In the same order, the values of `OC1c2c(ccc3c2CCC3)CC12Cc1ccccc1C2` (stereo not given) are over 200 µM and 38 µM.
Consider `Cc1c(C2Cc3ccccc3N2)c2ccccc2n1C` (stereo not given), for which the EC50 is over 603 µM and the IC50 is 195 µM.
As to `CC(C)NC(=O)CNC(=O)c1ccccc1SC(=O)CCCC[n+]1ccccc1`, the EC50 is over 0.575 µM.
For `CC(=O)N(CCN1C(=O)c2ccccc2C1=O)CCN1C(=O)c2ccccc2C1=O`, the result was inactive.
For the molecule `COC(=O)[C@@H](O)[C@](O)(CCC(C)C)C(=O)O[C@@H]1C(OC)=C[C@]23CCCN2CCc2cc4c(cc2[C@H]13)OCO4`, the EC50 is over 245 µM and the IC50 was 0.575 µM.
Take `Nc1nc2ncn(CC(O)CO)c2c(=O)[nH]1` (stereo not given): the EC50 was over 60.3 µM and the IC50 is over 60.3 µM.
In the case of `NC(N)=NCCCC(NC(=O)OCCCCn1ccc(N)nc1=O)C(=O)O` (stereo not given), the EC50 was over 200 µM and the IC50 is over 200 µM.
Turning to `NC(=O)C(NCc1ccccc1)c1ccccc1` (stereo not given), the EC50 was over 200 µM and the IC50 is over 200 µM.
As to `Cc1cn2cc(-c3cccs3)nc2s1`, the EC50 is over 200 µM and the IC50 was 87.1 µM.
Taken in the same sequence, the figures for `O=C(/C(=C\c1ccc(Cl)cc1)c1ccccc1)c1ccccc1` were over 11.7 µM and over 11.7 µM.
In the same order, the values of `CC(C)CC(NC(=O)C(Cc1cnc[nH]1)NC(=O)C(CC(N)=O)NC(=O)C(NC(=O)C(CO)NC(=O)C(Cc1ccc(O)cc1)NC(=O)C(CO)NC(=O)C(C)N)C(C)O)C(=O)O` (stereo not given) (H-ASYSTNHL-OH; configuration not given here) are over 70.8 µM and over 70.8 µM.
For `COc1ccc(C(=C(Cl)c2ccccc2)c2ccc(OC)cc2)cc1`, the EC50 is over 200 µM and the concentration for half-maximal inhibition (IC50) was 47.9 µM.
In the same order, the values of `COC(=O)/C(=N\NC(N)=O)C(C(=O)C=C(C)C)C(=O)C(=O)Nc1ccc(Cl)c(Cl)c1` (stereo not given) are over 550 µM and 457 µM.
Consider `COc1ccc(OCC(=O)O)c2c1CCC(C)C2=O` (stereo not given), for which the result was inactive.
As for `COP(=N[Si](C)(C)C)(OC)OC`, the EC50 was over 200 µM and the IC50 was over 200 µM.
For `CC(C)(C)[Si](C)(C)OCC1OC(n2ccc(=O)[nH]c2=O)C(O[Si](C)(C)C(C)(C)C)C12OC2C(=O)NN` (stereo not given), the EC50 was over 200 µM and the IC50 amounted to 7.41 µM.
Taken in the same sequence, the figures for `COc1ccccc1NC(=O)C1=C(C)NC(C)=C(C(=O)Nc2ccccc2OC)C1c1ccc(C)cc1` were over 7.59 µM and over 7.59 µM.
Taken in the same sequence, the figures for `O=C(O)c1cnc2[nH]ccn2c1=O` were over 200 µM and over 200 µM.
For the molecule `CCOC(=O)C1=C(C)N(NC(N)=O)C2(N)N(NC(N)=O)C(C)=C(C(=O)OCC)C12C#N` (stereo not given), the EC50 is over 575 µM and the IC50 came out at 427 µM.
As for `COc1cc2c(cc1OC)C(Cl)C(c1ccc(Cl)cc1)=C2Cl` (stereo not given), the result was inactive.
`O=Nc1ccc(Cl)cc1C(=O)c1ccccc1`: the EC50 is over 200 µM and the IC50 was 32.4 µM.
On to `O=C(O)CC(O)(c1ccccc1C(=O)O)c1cccc2ccccc12` (stereo not given), for which the result was inactive.
Take `CCOC(=O)C(=[N+]=[N-])C(=O)C1(C(=O)OCC)CCN(C(=O)c2ccccc2)C1=O` (stereo not given): the EC50 is over 200 µM and the IC50 was over 200 µM.
As for `CN(C)CCn1c(=O)nc2c3c(c([N+](=O)[O-])ccc31)Nc1ccc(O)cc1-2`, the EC50 is over 2 µM and the IC50 amounted to 1.95 µM.
Taken in the same sequence, the figures for `CC(=O)On1c(-c2ccccc2)nc2ccccc2c1=S` were over 200 µM and 1.35 µM.
On to `NC(=O)c1ncn(CCN2CCN(C(=O)NCCCCCCNC(=O)N3CCN(CCn4cnc(C(N)=O)c4N)CC3)CC2)c1N`, for which the result was inactive.
With `ClC1=C(Cl)C(Cl)(Cl)SS1`, the EC50 was over 200 µM and the IC50 amounted to 33.1 µM.
Take `Nc1c(Cl)ncnc1NCC1(CO)CCC1`: the EC50 is over 200 µM and the IC50 was found to be 158 µM.
In the same order, the values of `CCOC(=O)c1cc(-n2nnc3ccccc32)cn1C` are over 200 µM and 46.8 µM.
Regarding `COc1c(O)cc2oc3cc(O)c(CC=C(C)C)c(O)c3c(=O)c2c1CC=C(C)C`, the EC50 was over 229 µM; the IC50 is 16.6 µM and 10.7 µM.
For the molecule `O=c1[nH]c(Nc2cccc(CO)c2)nc2nc[nH]c12`, the EC50 was over 200 µM and the IC50 was over 200 µM.
Regarding `COc1cc(N(CCC#N)CCC#N)ccc1/C(N=Nc1ccc(Cl)cc1)=N/NC(=O)c1cc(Br)ccc1O`, the EC50 is over 100 µM and the IC50 stood at 17.4 µM.
In the same order, the values of `CC(=O)N1CC2(CN(C(C)=O)CC3(C1)OCCO3)OCCO2` are over 200 µM and over 200 µM.
As to `CC(=O)NC1NCCNC1=O` (stereo not given), the EC50 is over 200 µM and the IC50 was over 200 µM.
With `Cc1nc2sc3c(c2c(=O)o1)CCCC3`, the EC50 is over 200 µM and the IC50 turned out to be 33.1 µM.
Take `O=C1C(c2ccccc2)C2C=CC(C2)N1O` (stereo not given): the EC50 was over 200 µM and the IC50 is over 200 µM.
`O=c1oc2c(ccc3c(O)cccc32)c2c1CCCC2`: the EC50 is over 200 µM and the IC50 was over 200 µM.
As to `Cn1c2c(c3ccccc31)CCN(CCCCN1CCc3c(n(C)c4ccccc34)C1=O)C2`, the EC50 is over 40.7 µM and the IC50 is over 40.7 µM.
For the molecule `COC(=O)C(=O)C(CC(=O)Nc1ccc(C)cc1)C(=O)OC` (stereo not given), the EC50 was over 309 µM and the IC50 was over 309 µM.
For the molecule `CC(C)c1cccc(C(C)C)c1NC(=O)C(=O)C(C(=O)c1ccccc1-c1ccccc1)C1OC(=O)c2ccccc21` (stereo not given), the EC50 was over 64.6 µM and the IC50 was 25.1 µM.
In the same order, the values of `O=C(NNC(=S)Nc1ccccc1)c1ccccc1Nc1ccccc1C(=O)NNC(=S)Nc1ccccc1` are over 30.9 µM and 30.2 µM.
In the same order, the values of `S=c1n(-c2ccc(Cl)cc2)c2/c(=N\Nc3cc(Cl)ccc3Cl)c(n1-c1ccccn1)=NCCN=2` are over 200 µM and over 200 µM.
Taken in the same sequence, the figures for `Nc1n[n+](CC(=O)c2ccccc2)c2sc(-c3ccccc3)nn12` were over 200 µM and 45.7 µM.
In the case of `CC1=NOC(=O)/C1=C/c1cccc2ccccc12`, the EC50 was over 1050 µM and the IC50 is over 1050 µM.
As for `O=Nc1ccc(N(CCO)CCO)cc1`, the EC50 is over 200 µM and the IC50 was 2.95 µM.
Turning to `O=C(O)C1CCCN1C(=O)c1ccccn1` (stereo not given), the EC50 is over 200 µM and the IC50 is over 200 µM.
Consider `O=C(CN1CCCCC1)Nc1ccc2c(c1)C1Oc3ccccc3CC1CO2` (stereo not given), for which the outcome was inactive.
For `CC(=O)Nc1ccc(C(=O)NN2C(=O)CSC2c2ccc([N+](=O)[O-])cc2)cc1` (stereo not given), the EC50 is over 25.1 µM and the IC50 is over 25.1 µM.
On to `C/C(O)=C(/C=NC(=S)c1ccncc1)C(=O)Nc1ccccc1`, for which the EC50 was over 200 µM and the IC50 was over 200 µM.
In the case of `CC(C)OP(=O)(OC(C)C)C(C(C)C)N(C)C(N)=NC#N` (stereo not given), the EC50 was over 200 µM and the IC50 is over 200 µM.
As for `Cc1ccc(S(=O)(=O)N2CCC[C@@H]2C(=O)O[C@@H]2CCC3CC=CC32)cc1` (stereo not given in full), the EC50 was over 200 µM and the 50% inhibitory concentration (IC50) turned out to be 12.6 µM.
`c1ccc2[nH]c(CSc3nc4ccccc4[nH]3)nc2c1`: the EC50 is over 200 µM and the IC50 was over 200 µM.
For the molecule `N#CC12Cc3ccc4c(c3-c3cccc(c31)CCN2C(=O)c1ccccc1)OCO4` (stereo not given), the result was inactive.
With `COc1ccc2c(c1)CC1(O)COc3cc(OC)ccc3C1O2` (stereo not given), the EC50 was over 200 µM and the IC50 was 67.6 µM.
On to `CC(=O)O[C@@H]1[C@H](OC(=O)CC(C)C)c2c(ccc3ccc(=O)oc23)OC1(C)C`, for which the EC50 is 13.5 µM and the IC50 was 53.7 µM.
In the same order, the values of `COc1ccc(C[C@H](N)C(=O)N2C[C@H](CO)C[C@H](n3cnc4c(N(C)C)ncnc43)C2)cc1` are over 138 µM and 81.3 µM.
Taken in the same sequence, the figures for `NC(=O)c1ncn(CC2(CO)CCC2)c1N` were over 200 µM and over 200 µM.
In the same order, the values of `O=C1C2=C(c3ccccc31)C(c1ccccc1Cl)N1C(=O)CSC1=N2` (stereo not given) are over 37.2 µM and over 37.2 µM.
Take `O=[N+]([O-])c1cccc(C2CC(c3ccccc3)=Nc3ccccc3S2)c1` (stereo not given): the EC50 is over 35.5 µM and the IC50 was 2.34 µM.
As for `O=C1CCC2(c3ccc(Cl)cc3)Nc3ncncc3N12` (stereo not given), the EC50 is over 871 µM and the IC50 was determined as 178 µM.
In the same order, the values of `Cn1cnc([N+](=O)[O-])c1Sc1nc(N)nc2c1ncn2C1OC(CO)C(O)C1O` (stereo not given) are over 200 µM and 0.309 µM.
In the same order, the values of `FC(F)(F)c1cccc(N(c2nc(Cl)nc(Cl)n2)c2nc(Cl)nc(Cl)n2)c1` are over 200 µM and over 200 µM.
Consider `CCCCCCCCCCCCCCCCC(C(=O)OC)S(=O)(=O)O` (stereo not given), for which the EC50 was over 200 µM and the IC50 was 123 µM.

For orientation: EC50 means the concentration needed to bring the measured effect to its halfway point. The term IC50 denotes the concentration that gives 50% inhibition. Read a high IC50 as weaker potency in that assay.

(Values after PubChem BioAssay AID179 (DTP/NCI, 2004).)
